Data reported in patent publication US20230202997A1, “CHROMANOL, QUINONE OR HYDROQUINONE COMPOUNDS FOR TREATMENT OF SEPSIS” (Sulfateq B.V., priority 2020, published 2023).

Key:
[1] = tested on: IL-6 mRNA expression; experiment: Inhibition of LPS-induced IL-6 mRNA expression in HUVEC; format: cell-based, Human; conditions: 10 μM for 30 min, then LPS 24 hours
Protocol: (§1) Human Umbilical Cord Endothelial Cells (HUVEC, Lonza CC-2519) were maintained on 1% gelatin-coated culture flasks in RPMI1640 medium containing 20% fetal bovine serum, 2 mM Glutamine (Sigma-Aldrich), 1% Penicillin-Streptomycin solution (Sigma-Aldrich) and 50 μg/ml Bovine Pituitary Extract (Invitrogen). HUVEC were passaged by trypsinization when the cultures reach a confluency of 70%. For all experiments, HUVEC were seeded at 0.6·10^5 cells/cm^2 and allowed to adhere for 24 hours.
(§2) HUVEC and NRK52E cells were pre-incubated with SUL compounds (10 μM) for 30 min and subsequently exposed to LPS for 24 hours under standard culture conditions. Cells were lysed in triZOL reagens (Invitrogen) and total RNA isolated according to manufacturers' instruction. 1 μg total RNA per sample was reverse transcribed using the FirstAid Reverse Transcription Kit (ThermoFisher). Copy-DNA equivalents of 5 ng total RNA were amplified on a ViiA7 Real-time PCR system (ThermoFisher, Waltham, Mass.) using iTaq Universal SYBR Green Supermix (Bio-Rad, Hercules, Calif.) and primers specific for tumor necrosis factor alpha, interleukin 1 beta, interleukin-6 and beta actin as loading control. Amplification was performed for 40 cycles of 95° C. for 30 s, 60° C. for 1 min. Relative mRNA expression was calculated as 2^−(Cq^gene^−Cq^reference^) and normalized to unstimulated control cells (100% inhibition) and vehicle-treated and LPS exposed cells (0% inhibition). The following primers were used: […]

[2] = tested on: TNFα mRNA expression; experiment: Inhibition of LPS-induced TNFα mRNA expression in HUVEC; format: cell-based, Human; conditions: 10 μM for 30 min, then LPS 24 hours
Protocol: as §1, §2

[3] = tested on: IL-1β mRNA expression; experiment: Inhibition of LPS-induced IL-1β mRNA expression in HUVEC; format: cell-based, Human; conditions: 10 μM for 30 min, then LPS 24 hours
Protocol: as §1, §2

[4] = tested on: TNFα mRNA expression; experiment: Endothelial inflammatory activation after endotoxin, TNFα mRNA (Example 5); format: cell-based, Human; conditions: HUVEC; 10 μM for 30 min
Protocol: as §1
(§3) HUVEC cells were lysed in triZOL reagens (Invitrogen) and total RNA isolated according to manufacturers' instruction. 1 μg total RNA per sample was reverse transcribed using the FirstAid Reverse Transcription Kit (ThermoFisher). Copy-DNA equivalents of 5 ng total RNA were amplified on a ViiA7 Real-time PCR system (ThermoFisher, Waltham, Mass.) using iTaq Universal SYBR Green Supermix (Bio-Rad, Hercules, Calif.) and primers specific for tumor necrosis factor alpha (TNFα; sense 5′-[…]-3′, antisense 5′-[…]-3′), interleukin 1 beta (IL-1β; sense 5′-[…]-3′, antisense 5′-[…]-3′), interleukin-6 (IL-6; sense 5′-[…]-3′, antisense 5′-[…]-3′) and beta actin (ACTB; sense 5′-[…]-3′, antisense 5′-[…]-3′) as loading control. Amplification was performed for 40 cycles of 95° C. for 30 s, 60° C. for 1 min. Relative mRNA expression was calculated according to the δδCt-method.

[5] = tested on: IL-6 mRNA expression; experiment: Endothelial inflammatory activation after endotoxin, IL-6 mRNA (Example 5); format: cell-based, Human; conditions: HUVEC; 10 μM for 30 min
Protocol: as §1, §3

[6] = tested on: cytoplasmic oxidative stress in HUVEC; experiment: LPS-induced cellular superoxide in HUVEC (DHE); format: cell-based, Human; conditions: 10 μM for 30 min, LPS 100 ng/ml 24 hours
Protocol: as §1
(§4) The production of cellular and mitochondrial oxidative stress was measured using fluorescent probes for cellular and mitochondrial superoxide, i.e. dihydroethidium (DHE) and MitoSox (ThermoFisher), respectively. HUVEC were incubated with BN-80933, SUL-138 or SUL-150 (all 10 μM) for 30 min. Next, HUVEC were exposed to LPS (100 ng/ml) for an additional 24 hours. In the final hour of incubation, 2.5 μM of DHE or MitoSox was applied to each sample. HUVEC were washed in PBS and fixed in 4% paraformaldehyde at room temperature for 15 min. Nuclear staining was performed by 5 μM […] (DAPI) and fluorescence intensity of the samples was recorded in a CLARIOStar Plus plate reader (BMG Labtech) equipped with the appropriate filter sets. Fluorescence recordings for DHE and MitoSox were corrected for DAPI fluorescence. All experiments were performed in quadruplicate.

[7] = tested on: NO production in HUVEC; experiment: Endothelial NO production (nitrate in conditioned medium), basal and after LPS; format: cell-based, Human
Protocol: as §1
Cellular production of NO was approximated by measuring nitrate concentrations in culture media using the Measure-IT™ High-Sensitivity Nitrite Assay Kit (#M36051, ThermoFisher) according to manufacturer's instructions. […] Therefore, nitrate concentrations in conditioned media are a good approximate to assess cellular NO production. 50 μl conditioned medium derived from a single 96-wells plate well was used per assay and normalized against protein concentration. All experiments were performed in quadruplicate.
Endotoxins suppress endothelial NO production by limiting the activity of eNOS. HUVEC were pre-treated with vehicle (DMSO), BN-80933, SUL-138, or SUL-150 or (all 10 μM) prior to endotoxin (LPS 100 ng/ml) exposure for 24 hours. The nitrate levels in the conditioned medium from endothelial cells exposed to LPS averaged at 160 pmol/mg protein (˜33% reduction versus non LPS exposed HUVEC, p=0.002), which was lower than basal control levels. BN-80933 further suppressed the nitrate levels in the conditioned medium (FIG. 7A) to an average of 90 pmol/mg protein (p=0.008).

[8] = tested on: IL-1β mRNA expression; experiment: Endothelial inflammatory activation after endotoxin, IL-1β mRNA (Example 5); format: cell-based, Human; conditions: HUVEC; 10 μM for 30 min
Protocol: as §1, §3

[9] = tested on: NO production in RAW264.7 macrophages; experiment: Macrophage NO production (nitrate in conditioned medium), basal and after LPS; format: cell-based, Mouse
Protocol: Mouse macrophage RAW264.7 cells (ATCC #TIB-71) were maintained in DMEM medium containing 10% fetal bovine serum, and 1% Penicillin-Streptomycin solution (Sigma-Aldrich). […] For all experiments, RAW264.7 cells were seeded at 0.5·10^5 cells/cm^2 and allowed to adhere for 24 hours. Cellular production of NO was approximated by measuring nitrate concentrations in culture media using the Measure-IT™ High-Sensitivity Nitrite Assay Kit (#M36051, ThermoFisher) according to manufacturer's instructions. […] Therefore, nitrate concentrations in conditioned media are a good approximate to assess cellular NO production. 50 μl conditioned medium derived from a single 96-wells plate well was used per assay and normalized against protein concentration. All experiments were performed in quadruplicate. LPS induces macrophage NO production by activating iNOS. RAW264.7 macrophages were pre-treated with vehicle (DMSO), BN-80933, SUL-138, or SUL-150 or (all 10 μM) prior to endotoxin (LPS 100 ng/ml) exposure for 24 hours. The nitrate levels in the conditioned medium from LPS exposed RAW264.7 macrophages averaged at 83 pmol/mg protein (˜16-fold increase versus non-exposed RAW264.7 cells, p=0.001).

[10] = tested on: HUVEC; experiment: Cell viability after hypothermia-rewarming stress (Neutral Red); format: cell-based, Human; conditions: 10 μM for 1 hour, 4° C. for 24 hours followed by 37° C. for 3 hours
Protocol: as §1
HUVEC were pre-treated with BN-80933, SUL-138 or SUL-150 (all 10 μM) for 1 hour in a humidified incubator at 37° C. Following pre-treatment, HUVEC were placed in a cold room (2-8° C.) for 24 hours and subsequently placed back at 37° C. for a 3 hour rewarming period. After 1 hour of rewarming, cell culture medium was replaced by prewarmed and filtered 0.4 mg/mL Neutral Red (#N463 8, Sigma-Aldrich) in culture medium. After the remaining 2 hour rewarming period, HUVEC were washed with PBS and NRU was solubilized in 100 μL resorption solution (50% ethanol, 1% ascetic acid in dH2O). The absorbance was measured at a wavelength of 550 nm on a BioTek ELx808 plate reader. The recorded OD550 nm values were normalized to control samples that were maintained at 37° C. at all times, which were assumed to be 100% viable.

[11] = tested on: mitochondrial oxidative stress in HUVEC; experiment: LPS-induced mitochondrial superoxide in HUVEC (MitoSox); format: cell-based, Human; conditions: 10 μM for 30 min, LPS 100 ng/ml 24 hours
Protocol: as §1, §4

[12] = tested on: TNFα mRNA expression; experiment: Inhibition of LPS-induced TNFα mRNA expression in NRK52E; format: cell-based, Rat; conditions: 10 μM for 30 min, then LPS 24 hours
Protocol: (§5) Rat kidney epithelial cells (ATCC #CRL-1571) were maintained in DMEM medium containing 10% fetal bovine serum, and 1% Penicillin-Streptomycin solution (Sigma-Aldrich). NRK52E cells were passaged by trypsinization when the cultures reached a confluency of 70%. For all experiments, NRK52E cells were seeded at 0.6·10^5 cells/cm^2 and allowed to adhere for 24 hours.
as §2

[13] = tested on: IL-6 mRNA expression; experiment: Inhibition of LPS-induced IL-6 mRNA expression in NRK52E; format: cell-based, Rat; conditions: 10 μM for 30 min, then LPS 24 hours
Protocol: as §5, §2

[14] = tested on: IL-1β mRNA expression; experiment: Inhibition of LPS-induced IL-1β mRNA expression in NRK52E; format: cell-based, Rat; conditions: 10 μM for 30 min, then LPS 24 hours
Protocol: as §5, §2

[15] = 10 μM pre-treatment, LPS 100 ng/ml for 24 hours

Row | SMILES | inhibition of LPS-induced mRNA expression of IL-6 [1] [%] | inhibition of LPS-induced mRNA expression of TNFα [2] [%] | inhibition of LPS-induced mRNA expression of IL-1β [3] [%] | inhibition of LPS-induced mRNA expression of TNFα [12] [%] | inhibition of LPS-induced mRNA expression of IL-6 [13] [%] | inhibition of LPS-induced mRNA expression of IL-1β [14] [%] | further results
1 | Cc1c(C)c(O)c(CC[C@@](C)(O)C(=O)N2CCN(CCO)CC2)c(C)c1O [SUL-138M2, 4-(2,5-dihydroxy-3,4,6-trimethylphenyl)-2-hydroxy-1-(4-(2-hydroxyethyl)piperazin-1-yl)-2-methylbutan-1-one] | 55.2 ± 8.5 | 58.1 ± 3.1 | 51.7 ± 8.0 |  |  |  | 
2 | Cc1c(C)c2c(c(C)c1O)CC[C@@](C)(C(=O)N1CCN(c3ccc(NC(=N)c4cccs4)cc3)CC1)O2 [BN-80933, reference compound] |  |  |  |  |  |  | LPS-induced mRNA expression of TNFα [4]: precludes the induction of mRNA expression of the pro-inflammatory cytokine TNFα; LPS-induced mRNA expression of IL-6 [5]: does not preclude the LPS-induced mRNA expression of the interleukins IL-1β and IL-6; LPS-induced cytoplasmic oxidative stress (DHE) [6]: mitigates the induction of cytoplasmic oxidative stress; nitrate levels in the conditioned medium after LPS [7, 15]: 90 pmol/mg protein; suppression of basal endothelial NO production (nitrate in conditioned medium) ([7]; no LPS, 10 μM): ~38%; LPS-induced mRNA expression of IL-1β [8]: does not preclude the LPS-induced mRNA expression of the interleukins IL-1β and IL-6; LPS-induced increase in extracellular nitrate level [9, 15]: blunted the LPS-induced increase in extracellular nitrate level; basal production of extracellular nitrate ([9]; no LPS, 10 μM): Neither BN-80933, SUL-138, nor SUL-150 affected the basal production of extracellular nitrate; reduction in cell viability versus normothermic control cells [10]: ~55%; LPS-induced mitochondrial oxidative stress (MitoSox) [11]: not affected by the pre-treatment with BN-80933
3 | Cc1c(C)c2c(c(C)c1O)CCC(C)(C(=O)Nc1ccccc1)O2 (stereo not shown) [SUL-103, 6-hydroxy-2,5,7,8-tetramethyl-N-phenyl-3,4-dihydro-2H-1-benzopyran-2-carboxamide] |  |  |  | 67.8 ± 7.8 | 63.3 ± 1.4 | 59.2 ± 7.9 | 
4 | Cc1c(C)c2c(c(C)c1O)CCC(C)(C(=O)NCc1ccccc1)O2 (stereo not shown) [SUL-96, N-benzyl-6-hydroxy-2,5,7,8-tetramethyl-3,4-dihydro-2H-1-benzopyran-2-carboxamide] |  |  |  | 85.4 ± 4.7 | 89.9 ± 5.8 | 81.7 ± 7.2 | 
5 | Cc1c(C)c2c(c(C)c1O)CCC(C)(C(=O)N[C@H](CO)c1ccccc1)O2 (stereo partly drawn) [SUL-129, 6-hydroxy-N-[(1S)-2-hydroxy-1-phenylethyl]-2,5,7,8-tetramethyl-3,4-dihydro-2H-1-benzopyran-2-carboxamide] |  |  |  | 75.6 ± 6.4 | 69.2 ± 2.6 | 75.9 ± 7.1 | 
6 | COC(=O)CNC(=O)C1(C)CCc2c(C)c(O)c(C)c(C)c2O1 (stereo not shown) [SUL-99, methyl [(6-hydroxy-2,5,7,8-tetramethyl-3,4-dihydro-2H-1-benzopyran-2-carbonyl)amino]acetate, reference compound] | 32.7 ± 8.1 | 35.1 ± 6.2 | 31.5 ± 4.5 |  |  |  | 
7 | Cc1c(C)c2c(c(C)c1O)CCC(C)(C(N)=O)O2 (stereo not shown) [SUL-89, 6-hydroxy-2,5,7,8-tetramethyl-3,4-dihydro-2H-1-benzopyran-2-carboxamide, reference compound] |  |  |  | 17.5 ± 3.4 | 8.7 ± 4.6 | 12.3 ± 6.4 | 
8 | Cc1c(C)c2c(c(C)c1O)CC[C@@](C)(C(=O)N[C@@H]1CCCNC1)O2 [SUL-13, (2S)-6-hydroxy-2,5,7,8-tetramethyl-N-((R)-piperidin-3-yl)-3,4-dihydro-1-benzopyran-2-carboxamide] | 45.7 ± 9.1 | 41.2 ± 8.2 | 38.6 ± 4.2 |  |  |  | 
